Reference: ChEMBL document CHEMBL1201862, “PubChem BioAssay data set” (2004)
The source made the active and inactive calls.

How the values were obtained:
[1] = biological target: T1, Ubiquitin-conjugating enzyme E2 N (Homo sapiens, UniProt P61088); type: functional;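 note: Dose-response confirmation in a TR-FRET assay detecting UBC13-driven polyubiquitin chain formation, inhibition measured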
T1 sequence (P61088 whole entry): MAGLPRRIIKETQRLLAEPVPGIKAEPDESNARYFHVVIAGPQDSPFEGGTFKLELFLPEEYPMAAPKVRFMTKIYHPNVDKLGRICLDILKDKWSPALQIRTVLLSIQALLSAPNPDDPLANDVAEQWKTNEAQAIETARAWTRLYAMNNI

[2] = biological target: T2, Acyl-homoserine lactone acylase PvdQ (Pseudomonas aeruginosa (strain LESB58), UniProt Q9I194); assay: PvdQ acylase enzyme activity blockers – biochemical, fluorescence, plate reader and imaging, cherry-picks, dose response (AID 493231)
T2 sequence (Q9I194 whole entry): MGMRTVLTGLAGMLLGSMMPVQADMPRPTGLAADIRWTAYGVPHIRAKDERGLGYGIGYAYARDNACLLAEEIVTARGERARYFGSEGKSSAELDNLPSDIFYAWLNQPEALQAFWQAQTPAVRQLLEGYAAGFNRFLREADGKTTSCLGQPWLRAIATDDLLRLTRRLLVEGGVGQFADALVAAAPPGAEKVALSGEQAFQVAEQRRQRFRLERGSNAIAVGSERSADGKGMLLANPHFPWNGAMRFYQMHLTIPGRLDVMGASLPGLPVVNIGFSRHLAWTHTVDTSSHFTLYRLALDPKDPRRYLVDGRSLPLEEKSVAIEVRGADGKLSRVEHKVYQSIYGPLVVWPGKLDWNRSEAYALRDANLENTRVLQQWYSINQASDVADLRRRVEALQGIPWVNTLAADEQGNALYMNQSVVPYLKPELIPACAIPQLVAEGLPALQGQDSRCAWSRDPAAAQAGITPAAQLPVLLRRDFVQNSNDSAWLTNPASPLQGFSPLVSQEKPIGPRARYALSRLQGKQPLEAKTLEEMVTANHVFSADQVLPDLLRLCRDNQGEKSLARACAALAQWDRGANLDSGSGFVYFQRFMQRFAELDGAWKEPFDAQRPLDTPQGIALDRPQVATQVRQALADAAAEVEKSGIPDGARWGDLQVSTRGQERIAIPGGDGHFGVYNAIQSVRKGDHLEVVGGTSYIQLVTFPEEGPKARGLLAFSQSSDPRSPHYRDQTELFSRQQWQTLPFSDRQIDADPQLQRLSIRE

[3] = alpha-synuclein stem-loop translation blockers – luminescence, H4 neuroglioblastoma cells, dose confirmation, confirmation (AID 2454); type: functional, cell-based;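 note: H4 neuroglioblastoma cells carrying an alpha-synuclein 5'UTR luciferase reporter; potency for inhibition of the luciferase signal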
[4] = DRD fibroblast viability loss – cell-based, non-viral oncogenic, luminescence, dose response (AID 1934); type: functional; details: Homo sapiens
[5] = luciferase reporter signal reduction – luminescence, H4-C neuroglioblastoma cells, dose response (AID 2458); type: functional, cell-based;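 note: H4 neuroglioblastoma cells stably carrying a luciferase reporter gene fusion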
[6] = HEK-293T viability loss after treatment – luminescence, T-cell screen hits, cytotoxicity control for TCR NF-kB inhibitor project, dose response (AID 489026); type: functional, cell-based;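 note: cells exposed to compound about 14 hours before the viability readout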
CAAX prenyl protease 2 = biological target: T3, CAAX prenyl protease 2 (Homo sapiens, UniProt Q9Y256); assay: inhibition of Ras-converting CAAX protease Rce1 – biochemical, yeast membranes, quenched-peptide fluorescence, cherry-pick, dose response (AID 588849)
T3 sequence (Q9Y256 whole entry): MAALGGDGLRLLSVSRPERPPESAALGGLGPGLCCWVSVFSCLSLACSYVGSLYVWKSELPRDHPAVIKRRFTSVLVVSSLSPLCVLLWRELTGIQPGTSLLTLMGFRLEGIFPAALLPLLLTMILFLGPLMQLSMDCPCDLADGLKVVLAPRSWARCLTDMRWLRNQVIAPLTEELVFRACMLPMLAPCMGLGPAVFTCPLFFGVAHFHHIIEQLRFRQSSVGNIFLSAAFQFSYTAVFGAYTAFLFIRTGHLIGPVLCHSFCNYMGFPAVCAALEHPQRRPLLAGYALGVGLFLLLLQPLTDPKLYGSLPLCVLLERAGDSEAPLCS

[7] = luciferase reporter signal suppression in cells – H4 neuroglioma cells, luminescence, dose response (AID 1990); type: functional, cell-based
cells = type: functional, cell-based
BJ [8] = assay: cells; type: functional, cell-based; details: Homo sapiens
BJ [9] = assay: BJ-TERT fibroblast viability loss – cell-based, RAS-independent, luminescence, dose response (AID 1933); type: functional; details: Homo sapiens
[10] = alpha-synuclein stem-loop luciferase translation blockers – H4 neuroglioma cells, luminescence, confirmation (AID 1988); type: functional, cell-based
Procathepsin L = Procathepsin L (Homo sapiens, UniProt P07711); assay: CTSL1 protease inhibition – biochemical, QFRET, 1536-well, counter-screen for M1/M17 aminopeptidase inhibitor project, dose response (AID 2214)
Chain of Procathepsin L (P07711 whole entry): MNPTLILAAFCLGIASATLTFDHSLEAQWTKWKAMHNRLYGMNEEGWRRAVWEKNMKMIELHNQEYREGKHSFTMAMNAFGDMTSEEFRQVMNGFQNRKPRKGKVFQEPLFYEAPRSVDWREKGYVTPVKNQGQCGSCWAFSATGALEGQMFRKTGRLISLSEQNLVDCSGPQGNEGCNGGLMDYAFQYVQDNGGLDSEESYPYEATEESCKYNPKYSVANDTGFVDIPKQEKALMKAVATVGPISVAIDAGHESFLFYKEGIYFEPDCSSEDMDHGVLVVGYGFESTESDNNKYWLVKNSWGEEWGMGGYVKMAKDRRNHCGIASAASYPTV

Aspartyl aminopeptidase = biological target: T4, Aspartyl aminopeptidase (Plasmodium falciparum 3D7, UniProt Q8I2J3); assay: Counterscreen for inhibitors of M1 and M17 aminopeptidases: QFRET-based biochemical high throughput dose response assay for inhibitors of the Plasmodium falciparum M18 Aspartyl Aminopeptidase (PFM18AAP). [Related PubChem assays: 1619 (Screening assay (M17LAP inhibitors).), 1445 (Screening assay (M1AAP inhibitors).)]
T4 sequence (Q8I2J3 whole entry): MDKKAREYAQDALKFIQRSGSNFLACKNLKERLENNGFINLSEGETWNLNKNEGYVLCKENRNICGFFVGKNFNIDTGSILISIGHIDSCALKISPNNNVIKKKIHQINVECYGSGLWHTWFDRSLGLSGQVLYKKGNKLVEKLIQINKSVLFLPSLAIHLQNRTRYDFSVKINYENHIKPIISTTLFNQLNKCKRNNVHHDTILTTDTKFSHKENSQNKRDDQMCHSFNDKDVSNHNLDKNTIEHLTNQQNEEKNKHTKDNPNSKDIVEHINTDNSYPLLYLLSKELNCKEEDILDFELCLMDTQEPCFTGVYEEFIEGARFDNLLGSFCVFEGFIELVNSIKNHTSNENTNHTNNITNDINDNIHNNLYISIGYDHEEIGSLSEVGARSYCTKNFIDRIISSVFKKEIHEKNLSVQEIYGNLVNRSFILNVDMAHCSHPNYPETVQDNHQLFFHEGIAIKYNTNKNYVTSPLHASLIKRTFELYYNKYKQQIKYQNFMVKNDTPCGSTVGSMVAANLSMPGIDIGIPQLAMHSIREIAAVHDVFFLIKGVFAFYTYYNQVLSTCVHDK

Leucine aminopeptidase = biological target: T5, Leucine aminopeptidase (Plasmodium falciparum 3D7, UniProt Q8IL11); assay: P. falciparum M17LAP inhibitors, primary screen, biochemical, fluorogenic H-Leu-NHMec substrate, 1536-well (AID 1619); type: functional
T5 sequence (Q8IL11 whole entry): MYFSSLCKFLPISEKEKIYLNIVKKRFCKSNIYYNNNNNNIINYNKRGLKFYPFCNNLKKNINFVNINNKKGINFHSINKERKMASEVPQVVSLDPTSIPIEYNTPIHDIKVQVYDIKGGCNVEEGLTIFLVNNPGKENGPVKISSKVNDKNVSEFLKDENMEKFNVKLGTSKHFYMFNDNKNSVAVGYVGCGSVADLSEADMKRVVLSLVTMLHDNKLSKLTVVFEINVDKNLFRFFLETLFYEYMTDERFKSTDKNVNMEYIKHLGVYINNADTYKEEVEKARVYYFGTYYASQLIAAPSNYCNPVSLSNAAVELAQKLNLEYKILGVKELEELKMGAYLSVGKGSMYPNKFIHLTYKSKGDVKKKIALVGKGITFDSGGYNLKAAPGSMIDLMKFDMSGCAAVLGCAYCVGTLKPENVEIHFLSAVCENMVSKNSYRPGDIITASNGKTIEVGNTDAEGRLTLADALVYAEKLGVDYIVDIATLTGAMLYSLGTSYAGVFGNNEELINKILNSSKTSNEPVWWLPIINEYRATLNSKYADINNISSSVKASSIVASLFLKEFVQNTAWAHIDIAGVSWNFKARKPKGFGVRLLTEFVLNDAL

[11] = A cytotoxicity screen of small molecule inhibitors of the PhoP region in Salmonella typhi identified in the primary screen. [Related pubchem assays: 1850, 1864, 1985 ]; type: functional
[12] = biological target: Eukaryotic translation initiation factor 4E (Mus musculus, UniProt P63073); assay: blockers of eIF4G binding by eIF4E – biochemical, TR-FRET, dose response (AID 855); type: functional;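 note: potency for disrupting eIF4E binding to eIF4GI seen as loss of FRET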
Chain of Eukaryotic translation initiation factor 4E (P63073 whole entry): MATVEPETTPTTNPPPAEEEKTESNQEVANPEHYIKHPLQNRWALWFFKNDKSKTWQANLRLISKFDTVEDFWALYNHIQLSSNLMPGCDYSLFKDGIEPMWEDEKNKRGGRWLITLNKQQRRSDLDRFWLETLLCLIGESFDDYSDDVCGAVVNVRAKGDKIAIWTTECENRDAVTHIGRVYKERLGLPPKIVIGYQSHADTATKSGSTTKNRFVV

## COc1cccc(Cn2cnc3c([N+](=O)[O-])c(C)c(C)cc32)c1
[1]
  IC50: > 20000 nM (inactive)

## Cc1cc(NC(=O)c2cc([N+](=O)[O-])ccc2Cl)no1
[2]
  AC50: 3710 nM (active)

## COc1ccccc1-c1nnc2sc(-c3ccc(N(C)C)cc3)nn12
[3]
  EC50: 179 nM (active)
[4]
  EC50: 202 nM (active)
[5]
  EC50: 143 nM (active)
[6]
  IC50: > 80000 nM (inactive)
CAAX prenyl protease 2
  AC50: 1020 nM (active)
[7]
  EC50: < 100 nM (active)
cells
  EC50: 290 nM (active)
BJ [8]
  EC50: 637 nM (active)
BJ [9]
  EC50: 179 nM (active)
[10]
  EC50: < 100 nM (active)

## CCOc1ccc(C(=O)Nc2cccc(C)n2)cc1
[2]
  AC50: 19300 nM (active)

## COc1ccc(NC(=O)CSc2nc(O)cc(=O)n2C)cc1
Procathepsin L
  IC50: > 59600 nM (not active)
Aspartyl aminopeptidase
  IC50: > 73500 nM (not active)
Leucine aminopeptidase
  IC50: 2590 nM (active)

## CCOc1ccc(C2CC(=O)NC(SCC(=O)OC)=C2C#N)cc1 (centres undefined)
[11]
  EC50: > 50000 nM (active)

## O=C(CSc1nnc(-c2ccccc2)n1-c1ccc(Cl)cc1)NC1CCS(=O)(=O)C1 (centres undefined)
[11]
  EC50: > 50000 nM (active)

## O=C1OC(c2ccccc2)=C/C1=C\c1ccc(-c2ccc([N+](=O)[O-])cc2)o1
[12]
  IC50: 50000 nM (inactive)
